Values quoted from earlier work in patent publication US20260248129A1, “SPRAYABLE SUBSTANCES FOR PHOTOSYNTHESIS ENHANCEMENT” (Sensei Ag Holdings, Inc., priority 2023, published 2026).
Values after ≈ are worked out from the molar mass of the structure shown. Where two headings read alike, the source gives them in different places.

How the values were obtained:
[1] = ethanol, methanol, hexane, ether, and a variety of other solvents
[2] = not given; remark: listed apart in the source

| Compound | solubility in water (in words) (water) | water solubility (water at 25° C.) [mg/L] | solubility in organic solvents (in words) [1] | stability under light (in words) [2] | water solubility (water) [mg/100 mL] |
| --- | --- | --- | --- | --- | --- |
| c1ccc2cc3ccccc3cc2c1 [anthracene, Anthracene] | slightly soluble | 0.044 (≈ 0.247 µM) | very soluble | does eventually degrade under light | – |
| O=c1ccc2ccccc2o1 [coumarin, Coumarin] | – | – | – | – | 0.17 |
